From paper PMC5458211, “Mitochondrial VDAC1-based peptides: Attacking oncogenic properties in glioblastoma” (Oncotarget, 2017)
Non-standard residues stand in square brackets, D forms with d. Residues, ends and D or L forms follow the SMILES beside them.

How the values were obtained:
U-251MG cells = experiment: Cell death by PI staining and flow cytometry, U-251MG; format: cell-based, human; settings: 6 h at 37°C, serum-free medium, means ± SD (n=3), Fig 1H, read-out: IC50 for inducing cell death
Source text: (§1) Figure 1 VDAC1-based peptides induce dramatic cell death of several brain tumor-derived cell lines but to lesser extent in primary brain cells A. IHC staining of VDAC1 of human normal brain (n=13) or glioblastoma (n=41) in tissue array slides (Biomax), as described in Materials and methods available online in Supplemental information. Percentages of sections stained at the intensity indicated are shown. […] The VDAC1-derived sequences Δ(1-14)N-terminus and LP4 are in green and pink, respectively. The cell-penetrating peptides Antp and Tf are in orange and blue, respectively. The loop shape of LP4 stabilized by a tryptophan zipper is in purple. The amino acids of Δ(1-14)N-terminus, LP4 and Antp are in the D configuration. The sequences of D-LP4 and Retro-D-LP4 are presented below. C. […] Cells were harvested, washed twice with PBS and cell death was analyzed by propidium iodide (PI) staining and flow cytometry. […] Cells were harvested, washed twice with PBS and cell death was analyzed by PI staining and flow cytometry. […]
(§2) Cells (6×10^5 /ml) were incubated in 500 μl serum-free medium with the peptide of interest for 6 h at 37°C in the presence of 5% CO2. The cells were then trypsinized, centrifuged (1500xg, 5 min), washed with PBS and analyzed for cell death using propidium iodide (PI) staining and flow cytometer (Beckton-Dickinson, San Jose, CA) and BD CellQuest Pro software. […]

LN-18 cells = experiment: Cell death by PI staining and flow cytometry, LN-18; format: cell-based, human; settings: 6 h at 37°C, serum-free medium, means ± SD (n=3), Fig 1H, read-out: IC50 for inducing cell death
Source text: as §1, §2

[1] = system: mitochondrial membrane potential (ΔΨm) in U-87MG cells; experiment: Mitochondrial membrane potential (TMRM); format: cell-based, human; settings: 3 h
Procedure: Figure 2 Mode of action of VDAC1-based peptides – interacting with- and detaching HK, releasing Cyto c, decreasing ATP level and inducing apoptosis A. Purified HK-II was fluorescently labeled using the NanoTemper protein-labeling Kit BLUE. […] Then, 3-5 μl of the samples were loaded into MST-grade glass capillaries and thermophoresis was measured using a Monolith-NT115 apparatus, as described in Materials and methods available online in Supplemental information. […] The final DMSO concentration in control and peptide-treated cells was 0.07%. Fixed cells were visualized using confocal microscopy (Olympus 1×81), as described in Materials and Methods available online in Supplemental information. […] The levels of HK in the supernatants were quantified and are presented as relative units. D. D-ΔN-Ter-Antp induces mitochondrial inner membrane depolarization analyzed as described in Materials and Methods available online in Supplemental information. […] Cells then were analyzed for Δψ using TMRM. Δψ is presented as percentage of control. […] Release of Cyto c from the mitochondria was analyzed by immunostaining using anti-Cyto c antibodies and confocal microscopy (Olympus 1×81) as described in Materials and Methods available online in Supplemental information. […] Quantification of apoptosis in control and peptide's treated cells are presented bellow the images. […]

cancer cells = settings: ref [23]; cited from earlier work
Source text: D-ΔN-Ter-Antp is composed of Antp (Penetrating), a 16 residue-long sequence from the Drosophila antennapedia-homeodomain, fused to a VDAC1-N-terminal sequence, both containing amino ...

Q: For `CC[C@@H](C)[C@@H](NC(=O)[C@@H](CCCCN)NC(=O)[C@H](NC(=O)[C@@H](CCC(N)=O)NC(=O)[C@@H](CCCNC(=N)N)NC(=O)[C@@H](CC(C)C)NC(=O)CNC(=O)[C@@H](Cc1ccccc1)NC(=O)CNC(=O)[C@@H](Cc1ccc(O)cc1)NC(=O)CNC(=O)[C@@H](CCCCN)NC(=O)[C@H](NC(=O)[C@@H](Cc1ccccc1)NC(=O)[C@H](NC(=O)[C@@H](CC(=O)O)NC(=O)[C@H](N)CCCNC(=N)N)C(C)C)[C@H](C)O)[C@H](C)CC)C(=O)N[C@H](Cc1c[nH]c2ccccc12)C(=O)N[C@H](Cc1ccccc1)C(=O)N[C@H](CCC(N)=O)C(=O)N[C@H](CC(N)=O)C(=O)N[C@H](CCCNC(=N)N)C(=O)N[C@H](CCCNC(=N)N)C(=O)N[C@H](CCSC)C(=O)N[C@H](CCCCN)C(=O)N[C@H](Cc1c[nH]c2ccccc12)C(=O)N[C@H](CCCCN)C(=O)N[C@H](CCCCN)C(=O)O` [D-ΔN-Ter-Antp] (H-[dR][dD][dV][dF][dT][dK]G[dY]G[dF]G[dL][dR][dQ][dI][dK][dI][dW][dF][dQ][dN][dR][dR][dM][dK][dW][dK][dK]-OH; N-terminus and C-terminus assumed), which IC50 (U-251MG cells) is on record?
A: 4.7 ± 0.9 µM

Q: What about the IC50 (LN-18 cells) of the same compound?
A: 3 ± 0.6 µM

Q: And the “mitochondrial membrane potential (TMRM fluorescence)” value [1]?
A: decrease in ΔΨm

Q: And the “cell death induction, selection among over 40 versions” value (cancer cells)?
A: most active in cell death induction
